Laboratory results from patent US20110319392A1, “Thiazole Sulfonamide And Oxazole Sulfonamide Kinase Inhibitors” (priority 2009, published 2011).
pIC50: −log10 of the molar value.

What was measured:
Format in all cases: cell-based, Human
A375P F11s tumor cells = assay: Cell growth inhibition assay (CellTiter-Glo), A375P F11s; conditions: Homo sapiens
How it was run: (§1)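 Cells seeded at 500/well (HN5 and HT-29 in high-glucose DMEM/10% FBS; A375P F11s in RPMI/10% FBS with pyruvate; SK-MEL-3 in McCoy's 5A/15% FBS), then exposed next day to 1:3 serial compound dilutions (0.2% DMSO) for 3 days at 37° C. CellTiter-Glo luminescence measured ATP; IC50 derived by 4-parameter fit.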

Colo205 tumor cells = assay: Cell growth inhibition assay (CellTiter-Glo), Colo205; conditions: Homo sapiens, COLO 205, 72 h; 3 days incubation
How it was run: (§2)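 Readout was CellTiter-Glo luminescence (total ATP, surrogate for cell number) after 3-day exposure at 37° C, 5% CO2 to 1:3 serial compound dilutions in 0.2% final DMSO. Seeding was 500 cells/well; IC50 derived by 4-parameter fit relative to vehicle-treated wells.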

BT474 tumor cells = assay: Cell growth inhibition assay (CellTiter-Glo), BT474; conditions: Homo sapiens, BT-474, 72 h, 3 days incubation
SK-MEL-3 tumor cells = assay: Cell growth inhibition assay (CellTiter-Glo), SK-MEL-3; conditions: Homo sapiens, SK-MEL3
How it was run: as §1

SK-MEL-28 tumor cells = assay: Cell growth inhibition assay (CellTiter-Glo), SK-MEL-28; conditions: Homo sapiens, SK-MEL-28, 72 h; 3 days incubation
How it was run: as §2

pIC50 (A375P F11s tumor cells) | pIC50 (Colo205 tumor cells) | pIC50 (BT474 tumor cells) | pIC50 (SK-MEL-3 tumor cells) | pIC50 (SK-MEL-28 tumor cells) | SMILES
> 7.00 | > 7.00 | < 6.00 | > 7.00 | > 7.00 | CCc1nc(-c2cccc(NS(=O)(=O)c3ccccc3)c2)c(-c2ccnc(Nc3ccc(N4CCN(C(C)=O)CC4)nc3)n2)s1 [Example 3, N-{3-[5-(2-{[6-(4-Acetyl-1-piperazinyl)-3-pyridinyl]amino}-4-pyrimidinyl)-2-ethyl-1,3-thiazol-4-yl]phenyl}benzenesulfonamide]
6.00 to 7.00 | 6.00 to 7.00 | < 6.00 | 6.00 to 7.00 | 6.00 to 7.00 | CCc1nc(-c2cccc(NS(=O)(=O)c3ccccc3)c2)c(-c2ccnc(Nc3ccc(N4CCOCC4)c(F)c3)n2)s1 [Example 4]
> 7.00 | > 7.00 | 6.00 to 7.00 | > 7.00 | > 7.00 | CCc1nc(-c2cccc(NS(=O)(=O)c3ccccc3)c2)c(-c2ccnc(Nc3ccc(OC)c(N4CCN(CCS(C)(=O)=O)CC4)c3)n2)s1 [Example 5, N-[3-(2-Ethyl-5-{2-[(4-(methyloxy)-3-{4-[2-(methylsulfonyl)ethyl]-1-piperazinyl}phenyl)amino]-4-pyrimidinyl}-1,3-thiazol-4-yl)phenyl]benzenesulfonamide]
> 7.00 | > 7.00 | < 6.00 | > 7.00 | > 7.00 | CC(=O)N1CCc2cc(Nc3nccc(-c4sc(C(C)C)nc4-c4cccc(NS(=O)(=O)c5ccccc5)c4)n3)ccc21 [Example 71]
6.00 to 7.00 | 6.00 to 7.00 | < 6.00 | > 7.00 | 6.00 to 7.00 | CC(C)c1nc(-c2cccc(NS(=O)(=O)c3ccccc3)c2)c(-c2ccnc(Nc3ccc(CC4CCN(CCS(C)(=O)=O)CC4)c(F)c3)n2)s1 [Example 72]
> 7.00 | > 7.00 | < 6.00 | > 7.00 | > 7.00 | CC(C)c1nc(-c2cccc(NS(=O)(=O)c3ccccc3)c2)c(-c2ccnc(Nc3ccc(F)c(N4CCN(CCS(C)(=O)=O)CC4)c3)n2)s1 [Example 73]
6.00 to 7.00 | 6.00 to 7.00 | < 6.00 | 6.00 to 7.00 | 6.00 to 7.00 | CC(C)c1nc(-c2cccc(NS(=O)(=O)c3ccccc3)c2)c(-c2ccnc(Nc3ccc(N4CCN(CCS(C)(=O)=O)CC4)c(F)c3F)n2)s1 [Example 74]
> 7.00 | > 7.00 | < 6.00 | > 7.00 | > 7.00 | CC(C)c1nc(-c2cccc(NS(=O)(=O)c3c(F)cccc3F)c2)c(-c2ccnc(Nc3ccc(N4CCN(C(C)C)CC4)cc3O)n2)s1 [Example 78]
6.00 to 7.00 | 6.00 to 7.00 | < 6.00 | 6.00 to 7.00 | 6.00 to 7.00 | COc1cc(N2CCN(CCF)CC2)ccc1Nc1nccc(-c2sc(C(C)C)nc2-c2cccc(NS(=O)(=O)c3c(F)cccc3F)c2)n1 [Example 79]
> 7.00 | > 7.00 | < 6.00 | > 7.00 | > 7.00 | CC(C)c1nc(-c2cccc(NS(=O)(=O)c3c(F)cccc3F)c2)c(-c2ccnc(Nc3ccc(N4CCN(CCO)CC4)nc3)n2)s1 [Example 80]
> 7.00 | > 7.00 | < 6.00 | > 7.00 | > 7.00 | CC(C)c1nc(-c2cccc(NS(=O)(=O)c3c(F)cccc3F)c2)c(-c2ccnc(Nc3cccc(N4CCN(C)CC4)c3)n2)s1 [Example 81]
> 7.00 | > 7.00 | < 6.00 | > 7.00 | > 7.00 | CC(C)c1nc(-c2cccc(NS(=O)(=O)c3c(F)cccc3F)c2)c(-c2ccnc(Nc3ccc(N4CCCNCC4)nc3)n2)s1 [Example 82]
6.00 to 7.00 | 6.00 to 7.00 | < 6.00 | 6.00 to 7.00 | 6.00 to 7.00 | CC(C)c1nc(-c2cc(F)cc(NS(=O)(=O)c3ccc(F)cc3)c2)c(-c2ccnc(Nc3ccc(N4CCOCC4)c(F)c3)n2)s1 [Example 83]
> 7.00 | > 7.00 | < 6.00 | > 7.00 | > 7.00 | CC(C)c1nc(-c2cc(F)cc(NS(=O)(=O)c3c(F)cccc3F)c2)c(-c2ccnc(Nc3ccc(N4CCOCC4)nc3)n2)s1 [Example 84]
> 7.00 | > 7.00 | – | > 7.00 | > 7.00 | CC(C)c1nc(-c2cc(F)cc(NS(=O)(=O)c3c(F)cccc3F)c2)c(-c2ccnc(Nc3ccc(N4CCOCC4)c(F)c3)n2)s1 [Example 85]
> 7.00 | > 7.00 | < 6.00 | > 7.00 | > 7.00 | CC(C)c1nc(-c2cccc(NS(=O)(=O)c3c(F)cccc3F)c2)c(-c2ccnc(Nc3cc(F)c(N4CCN(CCS(C)(=O)=O)CC4)cc3F)n2)s1 [Example 87]
> 7.00 | > 7.00 | < 6.00 | > 7.00 | > 7.00 | CC(C)c1nc(-c2cccc(NS(=O)(=O)c3c(F)cccc3F)c2)c(-c2ccnc(Nc3ccc(N4CCCN(CCS(C)(=O)=O)CC4)nc3)n2)s1 [Example 88]
> 7.00 | > 7.00 | < 6.00 | > 7.00 | > 7.00 | CC(C)c1nc(-c2cccc(NS(=O)(=O)c3c(F)cccc3F)c2)c(-c2ccnc(Nc3ccc(N4CC[C@@H](O)C4)nc3)n2)s1 [Example 89]
6.00 to 7.00 | > 7.00 | < 6.00 | 6.00 to 7.00 | > 7.00 | Cc1cc(N2CCC(N3CCCCC3)CC2)ccc1Nc1nccc(-c2sc(C(C)C)nc2-c2cccc(NS(=O)(=O)c3c(F)cccc3F)c2)n1 [Example 91]
6.00 to 7.00 | 6.00 to 7.00 | < 6.00 | 6.00 to 7.00 | 6.00 to 7.00 | CC(C)c1nc(-c2cccc(NS(=O)(=O)c3ccccc3)c2)c(-c2ccnc(Nc3ccc(N4CCOCC4)cn3)n2)s1 [Example 92]
6.00 to 7.00 | > 7.00 | < 6.00 | 6.00 to 7.00 | 6.00 to 7.00 | C=C(C)c1nc(-c2cccc(NS(=O)(=O)c3c(F)cccc3F)c2)c(-c2ccnc(Nc3ccc(N4CCN(CCF)CC4)c(F)c3)n2)s1 [Example 93]
6.00 to 7.00 | > 7.00 | < 6.00 | 6.00 to 7.00 | > 7.00 | CC(C)c1nc(-c2ccc(F)c(NS(=O)(=O)c3c(F)cccc3F)c2)c(-c2ccnc(Nc3ccc(N4CCN(CCS(C)(=O)=O)CC4)c(F)c3)n2)s1 [Example 95]
> 7.00 | > 7.00 | < 6.00 | > 7.00 | > 7.00 | CC(=O)N1CCN(c2ccc(Nc3nccc(-c4sc(C(C)C)nc4-c4cccc(NS(=O)(=O)c5cc(F)ccc5F)c4)n3)cn2)CC1 [Example 96]
